In patent US20050036992A1, “Novel use of liver X receptor agonists” (IRM LLC, priority 2002, published 2005):

Assays:
LXRs = details: Lehmann et al. 1997; cited from earlier work
[1] = target: T1, glucocorticoid receptor DNA binding domain and the ligand binding region of PPARβ (Homo sapiens, UniProt Q03181); details: Schmidt et al. 1999; cited from earlier work
T1 sequence (Q03181 211-439 limits assumed): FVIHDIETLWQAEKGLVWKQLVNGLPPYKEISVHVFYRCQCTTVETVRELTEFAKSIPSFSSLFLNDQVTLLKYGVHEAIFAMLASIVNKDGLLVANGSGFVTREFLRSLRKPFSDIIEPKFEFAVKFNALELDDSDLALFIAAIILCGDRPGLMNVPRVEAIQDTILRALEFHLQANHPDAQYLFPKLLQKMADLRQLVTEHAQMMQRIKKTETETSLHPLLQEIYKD

[2] = target: T2, glucocorticoid receptor DNA binding domain and the ligand binding region of LXRβ (Homo sapiens, UniProt P55055); details: Schmidt et al. 1999; cited from earlier work
T2 sequence (P55055 222-460 limits assumed): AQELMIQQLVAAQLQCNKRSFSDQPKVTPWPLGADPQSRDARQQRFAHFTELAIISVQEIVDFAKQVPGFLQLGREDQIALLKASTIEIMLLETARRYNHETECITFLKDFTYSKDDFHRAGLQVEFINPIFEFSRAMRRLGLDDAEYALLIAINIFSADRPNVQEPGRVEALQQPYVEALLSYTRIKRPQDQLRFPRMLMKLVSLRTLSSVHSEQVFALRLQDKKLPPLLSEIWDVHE

[3] = target: T3, glucocorticoid receptor DNA binding domain and the ligand binding region of PPARα (Homo sapiens, UniProt Q07869); details: Schmidt et al. 1999; cited from earlier work
T3 sequence (Q07869 239-466 limits assumed): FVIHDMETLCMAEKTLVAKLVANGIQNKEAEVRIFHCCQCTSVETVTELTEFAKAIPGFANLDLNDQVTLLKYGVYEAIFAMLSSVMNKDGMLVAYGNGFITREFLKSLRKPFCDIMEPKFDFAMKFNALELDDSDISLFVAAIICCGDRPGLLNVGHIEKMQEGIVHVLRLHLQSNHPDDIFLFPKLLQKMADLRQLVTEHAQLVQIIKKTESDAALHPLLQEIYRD

[4] = test system: C57B16 mice fed a high fat diet; assay: Glucose tolerance test in diet-induced obese mice; format: in vivo, mouse; details: diet-induced obesity, 20 mg/kg/day for one week
Protocol: To further examine effects of LXR agonists on glucose tolerance, C57B16 mice were fed a high fat diet for three months (Clinton/Cybulsky rodent diet; 40% kcal from fat, devoid of cholesterol) to induce obesity. After 3 months, mice were treated for one week with vehicle or 20 mg/kg/day GW3965. Glucose tolerance tests were performed by intraperitoneal injection of glucose (2 g/kg body weight) after 8 hours of fasting (FIG. […]). In addition, effect of GW3965 on glucose tolerance in lean C57B1/6 mice was also examined (FIG. 10B). The lean C57B1/6 mice maintained on normal chow diet and similarly treated as indicated above.

[5] = test system: GLUT4 expression in adipose tissue of LXR null mice; assay: Adipose tissue gene expression in LXR null mice vs wild-type controls; format: in vivo, mouse; details: 20 mg/kg/day gavage; FIG. 3B
Protocol: (§1) This Example describes that the effects of LXR agonists on expression of genes involved in glucose metabolism is dependent on LXR expression. LXR null mice or wild-type controls on a mixed background (n=4 per group) were gavaged daily with GW3965 (20 mg/kg/day) or vehicle. At the end of the treatment period, mice were fasted for 12 hours, sacrificed and total RNA was isolated. Gene expression for was determined by real time quantitative PCR assays.

LXRα = target: T4, LXRα (Homo sapiens, UniProt Q13133); details: Collins et al. 2002; cited from earlier work
T4 sequence (Q13133 1-447): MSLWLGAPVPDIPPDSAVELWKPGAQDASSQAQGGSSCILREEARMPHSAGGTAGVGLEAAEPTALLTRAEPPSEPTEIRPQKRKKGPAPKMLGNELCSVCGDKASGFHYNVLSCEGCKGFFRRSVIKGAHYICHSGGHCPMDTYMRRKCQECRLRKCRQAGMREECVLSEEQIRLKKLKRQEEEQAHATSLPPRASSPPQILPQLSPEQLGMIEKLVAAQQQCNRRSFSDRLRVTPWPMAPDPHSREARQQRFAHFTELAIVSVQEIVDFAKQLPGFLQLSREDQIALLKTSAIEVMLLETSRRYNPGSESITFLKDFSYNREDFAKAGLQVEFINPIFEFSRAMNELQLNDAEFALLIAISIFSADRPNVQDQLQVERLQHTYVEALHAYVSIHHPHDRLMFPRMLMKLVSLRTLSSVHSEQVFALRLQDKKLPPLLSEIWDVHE

[6] = test system: obese, insulin-resistant ob/ob mice; assay: Fasting plasma glucose in ob/ob mice, LXR agonist and/or metformin; format: in vivo, mouse; details: 3 months, GW3965 20 mg/kg/day, metformin 300 mg/kg/day, FIG. 11
Protocol: This Example describes treatment of mice with a combination of an LXR agonist and a known anti-diabetic drug. Obese, insulin-resistant ob/ob mice were treated with an LXR ligand, GW3965, at 20 mg/kg/day and/or metformin at 300 mg/kg/day for 3 months. Fasting plasma glucose levels were then determined.

[7] = test system: GLUT4 expression in white adipose tissue; assay: Gene expression in white adipose tissue of mice gavaged with LXR agonist (real time quantitative PCR); format: in vivo, mouse; details: C57/B16 mice, 20 mg/kg/day gavage, fasted 12 hours; FIG. 1B
Protocol: (§2) This Example describes coordinated regulation of genes involved in glucose metabolism by LXR agonist in vivo. 10 week old female C57/B16 mice (n=9 per group) were gavaged daily with GW3965 (20 mg/kg/day) or vehicle. At the end of the treatment period, mice were fasted for 12 hours, sacrificed and total RNA was isolated. Gene expression for individual animals was determined by real time quantitative PCR assays. The results are presented in FIGS. 1 and 2 as average expression for each group +/−standard deviation.

[8] = test system: genes involved in glucose metabolism in liver; assay: Gene expression in liver of mice gavaged with LXR agonist (real time quantitative PCR); format: in vivo, mouse; details: C57/B16 mice, 20 mg/kg/day gavage, fasted 12 hours; FIG. 1A
Protocol: as §2

[9] = test system: PGC-1 and PEPCK expression in livers of LXR null mice; assay: Liver gene expression in LXR null mice vs wild-type controls; format: in vivo, mouse; details: 20 mg/kg/day gavage; FIG. 3A
Protocol: as §1

LXRβ = target: T5, LXRβ (Homo sapiens, UniProt P55055); details: Collins et al. 2002; cited from earlier work
T5 sequence (P55055 1-460): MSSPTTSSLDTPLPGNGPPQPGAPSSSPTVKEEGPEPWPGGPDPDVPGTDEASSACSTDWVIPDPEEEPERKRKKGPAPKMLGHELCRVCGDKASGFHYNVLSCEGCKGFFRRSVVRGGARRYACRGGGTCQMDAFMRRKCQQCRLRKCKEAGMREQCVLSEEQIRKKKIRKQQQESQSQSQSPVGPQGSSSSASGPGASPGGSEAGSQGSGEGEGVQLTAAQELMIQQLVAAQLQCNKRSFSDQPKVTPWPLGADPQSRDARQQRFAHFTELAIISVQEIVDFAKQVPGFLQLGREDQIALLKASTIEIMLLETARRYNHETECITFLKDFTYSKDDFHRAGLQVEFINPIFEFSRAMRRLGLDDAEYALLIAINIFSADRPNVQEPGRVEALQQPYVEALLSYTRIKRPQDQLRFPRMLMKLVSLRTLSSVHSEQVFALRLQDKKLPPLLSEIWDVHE

3T3-L1 adipocytes = assay: Basal glucose uptake in 3T3-L1 adipocytes (14C-labeled 2-DOG); format: cell-based; details: 3T3-L1 adipocytes day 10, 24 hours serum-free; FIG. 9
Protocol: 3T3-L1 adipocytes at day 10 of differentiation were incubated for 24 hours with serum-free media supplemented with the indicated concentrations of T1317. The following day, basal glucose uptake (in the absence of insulin) of treated cells was measured in 96-well CytostarT plates using 14 C-labeled 2-DOG. Insulin (1 μg/ml) was used as positive control.

human GLUT4 promoter = assay: Human GLUT4 promoter luciferase reporter in 3T3-L1 adipocytes; format: cell-based, mouse; details: 3T3-L1 adipocytes day 8, serum-free media, 24 hours; FIG. 8B
Protocol: To further examine whether LXR ligands activate the human GLUT4 promoter, clonal populations of 3T3-L1 cells carrying stably-integrated luciferase reporters under the control of various truncations of the human GLUT4 promoter were differentiated into adipocytes. On day 8 of differentiation, cells were incubated in serum-free media with the indicated concentrations of T1317. Luciferase activity was measured 24 hours later.

SMILES: CC(C)CC[C@@H](O)[C@@H](C)[C@H]1CC[C@H]2[C@@H]3CC=C4C[C@@H](O)CC[C@]4(C)[C@H]3CC[C@]12C [22(R)-hydroxycholesterol]
- activation of LXRs (LXRs): activated

SMILES: CCCCCCCCCCCCCCOc1ccc(C(=O)O)o1 [TOFA, 5-tetradecyloxy-2-furancarboxylic acid]
- transactivation of chimeric GR DBD / PPARβ ligand binding region receptor [1]: transactivates
- transactivation of chimeric GR DBD / LXRβ ligand binding region receptor [2]: transactivates
- transactivation of chimeric GR DBD / PPARα ligand binding region receptor [3]: transactivates

SMILES: O=C(O)Cc1cccc(OCCCN(Cc2cccc(C(F)(F)F)c2Cl)CC(c2ccccc2)c2ccccc2)c1 [GW3965]
- insulin resistance [4]: improve
- glucose tolerance ([4]; i.p. glucose 2 g/kg after 8 hours fasting): improve
- regulation of GLUT4 expression in adipose tissue of LXR null mice [5]: abolished
- activation of LXRα (LXRα): effective in activating
- fasting plasma glucose level compared to control (vehicle) [6]: did not show significant difference
- GLUT4 expression in white adipose tissue [7]: induces
- expression of genes involved in gluconeogenesis in liver [8]: represses
- glucokinase expression in liver [8]: induces
- regulation of PEPCK expression in livers of LXR null mice [9]: abolished
- regulation of PGC-1 expression in livers of LXR null mice [9]: abolished
- activation of LXRβ (LXRβ): effective in activating

SMILES: CN(C)C(=N)N=C(N)N [metformin]
- fasting plasma glucose level compared to control (vehicle) [6]: did not show significant difference

SMILES: C[C@H](CC[C@@H]1OC1(C)C)[C@H]1CC[C@H]2[C@@H]3CC=C4C[C@@H](O)CC[C@]4(C)[C@H]3CC[C@]12C [24,25(S)-epoxycholesterol]
- activation of LXRs (LXRs): activated

SMILES: CC(C)[C@@H](O)CC[C@@H](C)[C@H]1CC[C@H]2[C@@H]3CC=C4C[C@@H](O)CC[C@]4(C)[C@H]3CC[C@]12C [24(S)-hydroxycholesterol]
- activation of LXRs (LXRs): activated

SMILES: O=S(=O)(c1ccccc1)N(CC(F)(F)F)c1ccc(C(O)(C(F)(F)F)C(F)(F)F)cc1 [T1317]
- basal glucose uptake (in the absence of insulin) (3T3-L1 adipocytes): enhance glucose uptake
- luciferase activity under control of human GLUT4 promoter truncations (human GLUT4 promoter): direct target for regulation
